Measured values published in paper PMC11345839, “Synthesis and Characterization of Folic Acid-Conjugated Terbium Complexes as Luminescent Probes for Targeting Folate Receptor-Expressing Cells” (Journal of Medicinal Chemistry, 2024).

Key:
FR = conditions: cited from earlier work
FRα = target: T1, FRα (Homo sapiens, UniProt P15328); test: Folate-FITC binding competition assay (flow cytometry), FRα on KB cells; conditions: competition with 10 nM Folate-FITC
T1 construct: Human KB nasopharyngeal epidermoid carcinoma cells (expressing FRα); endogenous in cells; host or cells: KB nasopharyngeal epidermoid carcinoma cells
T1 sequence (P15328 25-257): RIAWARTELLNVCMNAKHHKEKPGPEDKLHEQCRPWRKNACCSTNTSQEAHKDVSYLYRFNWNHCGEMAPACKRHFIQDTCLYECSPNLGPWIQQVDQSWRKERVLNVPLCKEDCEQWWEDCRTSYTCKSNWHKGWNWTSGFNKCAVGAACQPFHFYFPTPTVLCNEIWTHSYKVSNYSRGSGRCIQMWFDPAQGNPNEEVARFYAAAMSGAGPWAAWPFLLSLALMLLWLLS
Method: (§1) To assess the binding affinity of the terbium-folate conjugates, a flow cytometry binding competition assay was carried out with folate-FITC and increasing concentrations of terbium-folate conjugates with FRα and FRβ expressing cells. The affinity of FRα and FRβ for the terbium-folate conjugates is expressed relative to folic acid, which is given the value of 1.
(§2) Human KB nasopharyngeal epidermoid carcinoma cells (expressing FRα) and FRβ-transfected Chinese Hamster Ovary cells were cultured in Folate-free RPMI medium (Thermo Fisher Scientific) supplemented with 20% Newborn Calf Serum, 1% antibiotics (penicillin and streptomycin) and 25 mM HEPES, in a humidified 37 °C incubator with 5% CO2 as described by Van der Heijden et al.[4] The culture medium was refreshed every 3 days. Stock solutions (1 mM) of Tb-folate conjugates were made by dissolving in 50 mM NaHCO3 and stored at −20 °C until use. […] Flow cytometry data was analyzed in FlowJo v10.8 Software (BD Life Sciences). […] Data from 6–9 replicative experiments were analyzed. […]
(§3) Considering FRα and FRβ share the same affinity for folic acid and Folate-FITC, relative affinities for Tb-folate compounds were expressed relative to folic acid.[59],[60] The relative affinity was calculated using [drawing 1] […]

FRβ = target: T2, FRβ (Homo sapiens, UniProt P14207); test: Folate-FITC binding competition assay (flow cytometry), FRβ on CHO/FRβ transfected cells; conditions: competition with 1 nM Folate-FITC
T2 construct: expressed in transfected cells; host or cells: Chinese Hamster Ovary (CHO) cells
T2 sequence (P14207 17-255): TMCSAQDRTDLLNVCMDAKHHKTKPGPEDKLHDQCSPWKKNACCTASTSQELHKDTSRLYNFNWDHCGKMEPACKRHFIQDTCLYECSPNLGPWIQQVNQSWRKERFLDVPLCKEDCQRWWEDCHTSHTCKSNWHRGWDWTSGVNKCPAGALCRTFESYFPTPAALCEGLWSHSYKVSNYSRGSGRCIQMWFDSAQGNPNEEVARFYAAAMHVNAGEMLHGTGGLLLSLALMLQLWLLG
Method: as §1, §2, §3

[1] = design: method as in PMID 30296376; conditions: λex = 776 nm; cited from earlier work
[2] = design: method as in PMID 30296376; conditions: λex = 776 nm, λem = 793 nm; cited from earlier work
[3] = UV-vis absorption (molar extinction coefficient); assay type: physicochemical; conditions: H2O, λmax = 281 nm, mixture of regioisomers
Description: The absorption spectrum of folic acid is characterized by two absorption bands in the region of 250–300 and 300–400 nm, which correspond to the π → π* transition for the pterin and the n → π* transition for the p-amino benzoyl acid moieties respectively.[46] […] Differences are observed for TbL,^4 which is red-shifted and broadened due to the overlap with the acetophenone moiety; similar absorbance spectra of acetophenone-folate complexes have been reported by Quici et al.[16]
UV–vis spectra were recorded on a Cary60 UV–vis spectrophotometer fitted with a xenon source lamp or on a Jasco V-770 UV–visible/NIR spectrophotometer.

For `CN1c2c(nc(N)[nH]c2=O)NCC1CNc1ccc(C(=O)N[C@@H](CCC(=O)O)C(=O)O)cc1` (stereo partly drawn) [5-methyltetrahydrofolate], the “FR affinity, fold lower than folic acid” value (FR) is listed as “approximately 10 fold”.
With `Nc1nc(=O)c2nc(CNc3ccc(C(=O)N[C@@H](CCC(=O)O)C(=O)O)cc3)cnc2[nH]1` [ChEBI_27470, folic acid] the “relative binding affinity to FRα (folic acid = 1)” value (FRα) was 1 and the “relative binding affinity to FRβ (folic acid = 1)” value (FRβ) was 1.
For `CC1(C)C(/C=C/C2=C(Oc3ccc(C[C@H](NC(=O)c4ccc(NCc5cnc6nc(N)[nH]c(=O)c6n5)cc4)C(=O)[O-])cc3)C(=C/C=C3\N(CCCCS(=O)(=O)[O-])c4ccc(S(=O)(=O)[O-])cc4C3(C)C)/CCC2)=[N+](CCCCS(=O)(=O)[O-])c2ccc(S(=O)(=O)[O-])cc21.[H+].[H+].[H+].[H+]` [OTL38], the “ε (molar extinction coefficient)” value [1] is listed as 272 000 M^–1 cm^–1 and the “Φ (quantum yield)” value [2] is listed as 15.1%.
For Folate-PEG6-DOTA [L^1αγ], the “ε (molar extinction coefficient) of free ligand” value [3] was 20013 M^–1 cm^–1.
